Values joined by “and” are separate entries in the source; they are usually repeats but may differ in a detail not shown here. Equal values may be shown once.
Legend:
[1] = cited from earlier work
[2] = applied topically; cited from earlier work
[3] = 70 kg adult; cited from earlier work
[4] = Food intake study, intranasal lidocaine vs saline before a test meal; assay type: in vivo, human
Experimental: Three males and one female between 23 and 60 years of age with BMI's less than 25 kg/m2 participated in a study of food intake. The subjects presented to the food intake laboratory at noon after an overnight fast except for water from 9 pm the prior night on two occasions a week apart. They had 10 mg (0.5 cc) of lidocaine or 0.5 cc normal saline administered in each nostril 20 minutes before presentation of a meal consisting of fried chicken pieces and water. They were allowed to eat and drink as much or as little as they wished over a 20-minute period, and there were more chicken pieces than they could reasonably be expected to eat at one sitting. The order of the lidocaine and saline was balanced and the study was performed in a double-blind fashion.
The four subjects consumed 15%, 11%, 27% and 33% less on the lidocaine week compared to the placebo week. […] Sibutramine, an obesity drug, gives an 8% weight loss at 6 months and causes a 12% decrease in food intake.

Q: Which weight loss ([1]; at 6 months) does the source give for `CC(C)CC(N(C)C)C1(c2ccc(Cl)cc2)CCC1` (centres unmarked) [Sibutramine] here?
A: Its weight loss is 8%.

Q: And the “decrease in food intake” value ([1]; in vivo)?
A: Its value is 12%.

Q: With `CCN(CC)CC(=O)Nc1c(C)cccc1C` [lidocaine] as the molecule, how does the duration of anesthesia [2] read?
A: Its duration of anesthesia is 30 to 45 min.

Q: And the “time to peak anesthesia” value [2]?
A: The value was 2 to 5 min.

Q: And the “maximum safe dosage for topical anesthetic” value [3]?
A: Its value is 500 mg.

Q: What about the “less food consumed on the lidocaine week compared to the placebo week (individual subjects)” value ([4]; 10 mg (0.5 cc) lidocaine in each nostril 20 minutes before meal, 20-minute meal of fried chicken pieces, four subjects, BMI less than 25 kg/m2) of the same molecule?
A: Its value is 15% and 11% and 27% and 33%.

Q: And the “overall reduction in food intake” value ([4]; 10 mg lidocaine per nostril vs saline, four subjects, p<0.02)?
A: The value was 21.5%+10.2%.

Q: And the “weight loss that might result if the food intake reduction is sustained” value ([4]; extrapolated from pilot study by comparison with sibutramine)?
A: Its value is no more than 14%.

— patent US20070020194A1, “Nasally administered appetite suppressant” (priority 2005, published 2007)
